Data on 8 compounds can be found in patent US8822692B2, “Diterpenoid derivatives endowed of biological properties” (SIGMA-TAU Industrie Farmaceutiche Riunite S.p.A., priority 2010, dated 2014).

Format in all cases: in vivo, rat
In experiment [1] the test system is Milan Hypertensive Rats (MHS). The experiment in a line: Anti-hypertensive effect in Milan hypertensive rats (MHS), six week oral treatment. The following applies: for effect on SBP in MHS rats (in words): at the dose tested; for SBP / HR: oral gavage 10 μg/kg/day, six weeks; for SBP: vehicle 169 (experiment A), 164 (experiment B); for HR: vehicle 348 (experiment A), 363 (experiment B). An excerpt: (§1) Anti-hypertensive property of various derivatives were looked at in vivo in three animal models of hypertension (i.e., mutant α-adducin congenic rats, ouabain-hypertensive rats and Milan hypertensive rats).
Milan hypertensive rats is a rat model of genetic hypertension sustained by α-adducin mutation and increased circulating levels of endogenous ouabain (Ferrari P., et al., Hypertension: Pathophysiology, Diagnosis and Management, (Volume 1). Laragh J H and Brenner B M (Eds.), Raven Press Publishers, New York, USA, 1261-1279, (1995).
The compounds were administered by oral gavage (10 μg/kg/day) for six weeks.

The test system of a further experiment is OHR rats. The experiment in a line: Urinary protein excretion and renal function in OHR rats. As for the experimental part: The effect of the compound of example 4 on urinary protein excretion was investigated. Increased levels of circulating endogenous ouabain not only associate with hypertension but also may affect renal function and increase the risk of renal failure and proteinuria (Stella P., et al., J. Int. Med., 2008, 263, 274) which represent major organ complications associated to hypertension.
OHR rats were orally treated with the compound of example 4 at 0.1 μg/kg/day for 6 weeks. At the end of the treatment, rats were allocated in single metabolic cages for 24 h urine collection.
Proteinuria and urinary creatinine were measured by commercial kits (Sentinel). Rats were sacrificed and blood was collected for plasma creatinine measurement.

The test system of experiment [2] is Ouabain-Hypertensive Rats (OHR). Briefly: Anti-hypertensive effect in ouabain-hypertensive rats (OHR), six week oral treatment. The conditions noted are these: six weeks. As for the experimental part: as §1
Hypertension was provoked by subcutaneous ouabain infusion (15 μg/kg/day) in normotensive rats as already described (Ferrari P., et al., J. Pharmacol. Exp. Ther., 1998, 285, 83).

Experiment [3] deals with rats bearing an α-adducin mutation (NA strain). Briefly: Anti-hypertensive effect in mutant α-adducin congenic rats (NA), six week oral treatment. The following applies: six weeks; for SBP: vehicle 164.4; for HR: vehicle 412. As for the experimental part:
Anti-hypertensive property of various derivatives were looked at in vivo in three animal models of hypertension (i.e., mutant α-adducin congenic rats, ouabain-hypertensive rats and Milan hypertensive rats). The compound of example 4 was administered by oral gavage at various doses for six weeks to rats bearing an α-adducin mutation (NA strain). Such mutation leading to hypertension and organ complication (Bianchi G., et al., Proc. Natl. Acad. Sci., 1994, 91, 3999) was obtained by introgressing a segment of chromosome 14 containing the locus of α-adducin from Milan Hypertensive rats (MHS), having the mutant variant, into Milan Normotensive rats (MNS), carrying the wild type α-adducin variant (Tripodi G., et al., Biochem. Biophys. Res. Commun., 2004, 324, 562).

[4] abbreviates: oral gavage 0.1 μg/kg/day once a day, experiment A, vehicle 173.
The mark [5] stands for this setting: oral gavage 0.1 μg/kg/day once a day, experiment A, vehicle 387.
Where [6] appears, read: oral gavage 1 μg/kg/day once a day, experiment A, vehicle 173.
Setting [7] is: oral gavage 1 μg/kg/day once a day, experiment A, vehicle 387.

Marks after values point to notes of the source that are not given here.

Consider `CC(C)c1ccc2c(c1)CCC1C(C)(/C=N/O[C@@H]3CCNC3)CCCC21C.O=C(O)/C=C/C(=O)O` (stereo partly drawn) [Example 4, (E)-15-((R)-3-Pyrrolidinyloxyimino)-13-isopropylpodocarpa-8,11,13-triene fumarate], for which the “effect on SBP in MHS rats (in words)” value in experiment [1] is listed as “not effective on SBP”. Further, in the experiment with OHR rats (0.1 μg/kg/day), the “urinary protein excretion in OHR rats (in words)” value is recorded as “significantly reduced the urinary protein excretion”. In addition, the Urinary creatinine with OHR rats (oral 0.1 μg/kg/day, 6 weeks, 24 h urine, OHR vehicle 33.7, saline controls 36.1) came to 35.6 mg/24 h. In addition, in the experiment on OHR rats (oral 0.1 μg/kg/day, 6 weeks, 24 h urine, OHR vehicle 51.6 ± 5, saline controls 35.6), the Proteinuria is 42** mg/24 hr. In the experiment on OHR rats (oral 0.1 μg/kg/day, 6 weeks, OHR vehicle 3.51, saline controls 3.1), the Plasma creatinine came to 3.59 mg/dL. For the same compound, the SBP is 157** mmHg in experiment [2] (setting [4]); 153** mmHg in experiment [2] (setting [6]); 150.6* mmHg in experiment [3] (oral gavage 1 μg/kg/day); 150.6* mmHg in experiment [3] (oral gavage 10 μg/kg/day); 147.5** mmHg in experiment [3] (oral gavage 100 μg/kg/day). The HR in experiment [2] (setting [5]) amounted to 382 beats/min; in experiment [2] (setting [7]), 380 beats/min; in experiment [3] (oral gavage 1 μg/kg/day), 415 beats/min; in experiment [3] (oral gavage 10 μg/kg/day) it was 425 beats/min; in experiment [3] (oral gavage 100 μg/kg/day), 421 beats/min.

`CC(C)c1ccc2c(c1)CCC1C(C)(/C=N/O[C@H]3CCNC3)CCCC21C.O=C(O)/C=C/C(=O)O` (stereo partly drawn) [Example 5, (E)-15-((S)-3-Pyrrolidinyloxyimino)-13-isopropylpodocarpa-8,11,13-triene fumarate]: the SBP in experiment [1] is listed as 155* mmHg; in experiment [2] (setting [4]), 154** mmHg. The HR in experiment [1] was determined as 367 beats/min; in experiment [2] (setting [5]), 390 beats/min.

For `CC(C)c1ccc2c(c1)CCC1C(C)(C=NOC3CCNCC3)CCCC21C.O=C(O)C=CC(=O)O` (stereo not shown) [Example 6, (E)-15-(4-Piperidinyloxyimino)-13-isopropylpodocarpa-8,11,13-triene fumarate], the SBP in experiment [2] (setting [6]) is recorded as 166 mmHg. Also, the HR in experiment [2] (setting [7]) is recorded as 392 beats/min.

As to `CC(C)c1ccc2c(c1)C(=O)C[C@H]1[C@](C)(/C=N/OCCN)CCC[C@]21C.O=C(O)/C=C/C(=O)O` [Example 12, (E)-15-(2-Aminoethoxyimino)-13-isopropylpodocarpa-8,11,13-triene-7-one fumarate], in experiment [1], the “effect on SBP in MHS rats (in words)” value is “significantly reduced SBP”. For the same compound, the SBP in experiment [1] was 161* mmHg; in experiment [2] (oral gavage 10 μg/kg/day once a day, experiment B, vehicle 171), 156** mmHg. The HR is recorded as 347 beats/min in experiment [1] and 380 beats/min in experiment [2] (oral gavage 10 μg/kg/day once a day, experiment B, vehicle 377).

As for `CC(C)c1ccc2c(c1)CCC1C(C)(/C=C\CCCN)CCCC21C.O=C(O)/C=C/C(=O)O` (stereo not shown) [Example 23, (Z)-15-(4-Aminobutyliden)-13-isopropylpodocarpa-8,11,13-triene fumarate], in experiment [2] (setting [6]), the SBP is 159** mmHg. Further, in experiment [2] (setting [7]), the HR is on record as 370 beats/min.

On to `CC(C)c1ccc2c(c1)CCC1C(C)(CCCCCN)CCCC21C.O=C(O)/C=C/C(=O)O` (stereo not shown) [Example 25, 15-(4-Aminobutyl)-13-isopropylpodocarpa-8,11,13-triene fumarate], for which the SBP in experiment [2] (setting [4]) came out at 164 mmHg. In experiment [2] (setting [5]), this compound showed an HR of 395 beats/min.

In the case of `CC(N)CCCCC1(C)CCCC2(C)c3ccc(C(C)C)cc3CCC12.O=C(O)/C=C/C(=O)O` (stereo not shown) [Example 26, 15-(4-Aminopentyl)-13-isopropylpodocarpa-8,11,13-triene fumarate], in experiment [2] (setting [6]), the SBP was found to be 164 mmHg. The same compound yielded an HR in experiment [2] (setting [7]) of 374 beats/min.

Regarding `CC(C)c1ccc2c(c1)CCC1C(C)(COCCCN)CCCC21C.O=C(O)/C=C/C(=O)O` (stereo not shown) [Example 27, 15-(3-Aminopropoxy)-13-isopropylpodocarpa-8,11,13-triene fumarate], in experiment [1], the “effect on SBP in MHS rats (in words)” value is recorded as “significantly reduced SBP”, the SBP is on record as 156* mmHg and the HR is 367 beats/min. Further, the SBP in experiment [2] (setting [6]) is recorded as 156** mmHg. In addition, in experiment [2] (setting [7]), the HR came out at 390 beats/min.
